Experiment [1] addresses human PTPN2 (1-387) (Homo sapiens (Human), UniProt P17706). Put plainly: Human PTPN2 Biochemical Assay. As to conditions: DiFMUP substrate. An outline of the steps:
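Human PTPN2 (1-387) preincubated 30 min at RT with compound (10-point 3-fold series) in Tris pH 7.4 buffer with 0.5 mM DTT, then DiFMUP substrate added for 1 h at RT. Fluorescence at ex 360/em 460 nm, normalised to no-enzyme and enzyme controls; EC50 from 4-parameter fit.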

Experiment [2] has as its target human PTPN1 (1-435) (Homo sapiens (Human), UniProt P18031). Kind of experiment: Human PTPN1 Biochemical Assay. As to conditions: DiFMUP substrate, read-out: PTP1B IC50. The essentials: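 Read-out is DiFMUP hydrolysis fluorescence (360 nm excitation, 460 nm emission) after 1 h at room temperature, following 30 min enzyme–compound preincubation.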

Among the data in patent publication US20250059220A1, “SUBSTITUTED BENZOTHIOPHENE DERIVATIVES AND METHODS OF USE THEREOF” (Merck Sharp & Dohme LLC, priority 2021, published 2025) are IC50 values, retold here.

human PTPN2 (1-387), sequence (P17706 other isoform, or with tags, fused parts or gaps): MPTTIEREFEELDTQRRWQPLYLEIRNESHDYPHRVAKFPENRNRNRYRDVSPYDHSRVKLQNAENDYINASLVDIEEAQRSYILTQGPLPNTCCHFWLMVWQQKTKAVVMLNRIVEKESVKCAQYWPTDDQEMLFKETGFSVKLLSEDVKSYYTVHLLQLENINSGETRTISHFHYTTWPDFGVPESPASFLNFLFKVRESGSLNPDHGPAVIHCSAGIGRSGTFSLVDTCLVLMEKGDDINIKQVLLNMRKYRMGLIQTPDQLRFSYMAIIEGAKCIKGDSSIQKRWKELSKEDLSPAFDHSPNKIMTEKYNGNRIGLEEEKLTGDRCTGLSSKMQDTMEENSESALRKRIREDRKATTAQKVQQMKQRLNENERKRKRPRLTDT
human PTPN1 (1-435), sequence (P18031 whole entry): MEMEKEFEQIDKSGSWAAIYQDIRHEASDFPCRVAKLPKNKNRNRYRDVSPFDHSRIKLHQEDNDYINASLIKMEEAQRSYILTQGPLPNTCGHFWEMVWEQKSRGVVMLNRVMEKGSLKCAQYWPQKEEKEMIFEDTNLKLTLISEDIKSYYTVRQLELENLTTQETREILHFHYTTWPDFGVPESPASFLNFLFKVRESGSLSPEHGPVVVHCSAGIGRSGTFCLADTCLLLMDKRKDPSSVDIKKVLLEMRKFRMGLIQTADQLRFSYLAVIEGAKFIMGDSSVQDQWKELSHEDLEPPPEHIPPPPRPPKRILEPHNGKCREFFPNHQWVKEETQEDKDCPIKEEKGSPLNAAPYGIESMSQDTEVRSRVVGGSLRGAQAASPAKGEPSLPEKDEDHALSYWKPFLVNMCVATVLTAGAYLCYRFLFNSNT

Turning to `O=P(O)(O)C(F)(F)c1sc2ccc(-c3nnc[nH]3)cc2c1Br` [Compound 227, ((3-bromo-5-(4H-1,2,4-triazol-3-yl)benzo[b]thiophen-2-yl)difluoromethyl)phosphonic acid], the IC50 (in general, the concentration that gives 50% inhibition) was 856 nM in experiment [1] and 1000 nM in experiment [2].

As for `O=P(O)(O)C(F)(F)c1sc2ccc(-c3ncc[nH]3)cc2c1Br` [Compound 228, ((3-bromo-5-(1H-imidazol-2-yl)benzo[b]thiophen-2-yl)difluoromethyl)phosphonic acid], the IC50 turned out to be 1610 nM in experiment [1] and 1850 nM in experiment [2].

Consider `O=P(O)(O)C(F)(F)c1sc2ccc(-c3cnn[nH]3)cc2c1Br` [Compound 229, ((3-bromo-5-(1H-1,2,3-triazol-5-yl)benzo[b]thiophen-2-yl)difluoromethyl)phosphonic acid], for which the IC50 in experiment [1] came to 86.2 nM; in experiment [2], 531 nM.

Turning to `O=P(O)(O)C(F)(F)c1sc2ccc(-c3nc4ccccc4[nH]3)cc2c1Br` [Compound 230, ((5-(1H-benzo[d]imidazol-2-yl)-3-bromobenzo[b]thiophen-2-yl)difluoromethyl)phosphonic acid], the IC50 in experiment [1] amounted to 1730 nM; in experiment [2] it was 1030 nM.

Regarding `O=P(O)(O)C(F)(F)c1sc2c(OCCCC(F)(F)F)c(F)ccc2c1Br` [Compound 231, ((3-bromo-6-fluoro-7-(4,4,4-trifluorobutoxy)benzo[b]thiophen-2-yl)difluoromethyl)phosphonic acid], the IC50 in experiment [1] turned out to be 989 nM; in experiment [2] it was 879 nM.

Consider `O=P(O)(O)C(F)(F)c1sc2c(OCCCC(F)(F)F)cc(-c3nc[nH]n3)cc2c1Br` [Compound 232, ((3-bromo-5-(1H-1,2,4-triazol-3-yl)-7-(4,4,4-trifluorobutoxy)benzo[b]thiophen-2-yl)difluoromethyl)phosphonic acid], for which the IC50 was 3.06 nM in experiment [1] and 3.4 nM in experiment [2].

Consider `N#Cc1cc(OCCCC(F)(F)F)c2sc(C(F)(F)P(=O)(O)O)c(Br)c2c1` [Compound 233, ((3-bromo-5-cyano-7-(4,4,4-trifluorobutoxy)benzo[b]thiophen-2-yl)difluoromethyl)phosphonic acid], for which the IC50 in experiment [1] turned out to be 146 nM; in experiment [2], 77 nM.

`COC(C)(C)C#Cc1cc(C(N)=O)cc2c(Br)c(C(F)(F)P(=O)(O)O)sc12` [Compound 234, ((3-bromo-5-carbamoyl-7-(3-methoxy-3-methylbut-1-yn-1-yl)benzo[b]thiophen-2-yl)difluoromethyl)phosphonic acid]: the IC50 came out at 774 nM in experiment [1] and 490 nM in experiment [2].

In the case of `NC(=O)c1cc(OCCCS(N)(=O)=O)c2sc(C(F)(F)P(=O)(O)O)c(Br)c2c1` [Compound 235, ((3-bromo-5-carbamoyl-7-(3-sulfamoylpropoxy)benzo[b]thiophen-2-yl)difluoromethyl)phosphonic acid], the results for the IC50 in experiment [1] and in experiment [2] were 16.6 nM and 20 nM, respectively.

For the molecule `O=C(NCc1cccnn1)c1cc(OCCCC2CC2)c2sc(C(F)(F)P(=O)(O)O)c(Br)c2c1` [Compound 236], the values for the IC50 in experiment [1] and in experiment [2] were 13.5 nM and 15.2 nM, respectively.

In the case of `NC(=O)c1cc(OCCOCC(F)(F)F)c2sc(C(F)(F)P(=O)(O)O)c(Br)c2c1` [Compound 237], the IC50 in experiment [1] amounted to 441 nM; in experiment [2] it was 544 nM.

For the molecule `CCOc1cc(C(N)=O)cc2c(Br)c(C(F)(F)P(=O)(O)O)sc12` [Compound 238], the results for the IC50 in experiment [1] and in experiment [2] were 227 nM and 327 nM, respectively.

Consider `CCCCCOc1cc(C(N)=O)cc2c(Br)c(C(F)(F)P(=O)(O)O)sc12` [Compound 239], for which the IC50 in experiment [1] came to 53.9 nM; in experiment [2], 55.4 nM.

As to `CCCCOc1cc(C(N)=O)cc2c(Br)c(C(F)(F)P(=O)(O)O)sc12` [Compound 240], the figures for the IC50 in experiment [1] and in experiment [2] were 98.7 nM and 112 nM, respectively.

`N#CCCCCOc1cc(C(N)=O)cc2c(Br)c(C(F)(F)P(=O)(O)O)sc12` [Compound 241]: the results for the IC50 in experiment [1] and in experiment [2] were 50.5 nM and 61.8 nM, respectively.

Consider `NC(=O)c1cc(OCc2ccccc2F)c2sc(C(F)(F)P(=O)(O)O)c(Br)c2c1` [Compound 242], for which the results for the IC50 in experiment [1] and in experiment [2] were 60 nM and 79.6 nM, respectively.
